From ChEMBL document CHEMBL1201862, “PubChem BioAssay data set” (2004)
Active and inactive are the calls of the source.

Tests used:
Assay type in all cases: functional
[1] = target: Platelet-derived growth factor receptor alpha (Homo sapiens, UniProt P16234); assay: Navigating the Kinome. Panel member name: PDGFRA
[2] = target: Dual specificity tyrosine-phosphorylation-regulated kinase 1A (Homo sapiens, UniProt Q13627);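 note: measured against DYRK1A as one member of a broad kinome profiling panel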
[3] = target: Macrophage colony-stimulating factor 1 receptor (Homo sapiens, UniProt P07333);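 note: value comes from the Navigating the Kinome screening panel, CSF1R member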
[4] = target: Cyclin-dependent kinase 9 (Homo sapiens, UniProt P50750);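 note: value from the CDK9 entry of a kinome-spanning kinase panel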
Aurora kinase B = Aurora kinase B (Homo sapiens, UniProt Q96GD4)
[5] = target: Dual specificity protein kinase CLK2 (Homo sapiens, UniProt P49760)
[6] = target: T1, Tyrosine-protein kinase receptor TYRO3 (Homo sapiens, UniProt Q06418);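 note: TYRO3 value obtained as one member of a kinome-wide profiling panel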
T1 sequence (Q06418 whole entry): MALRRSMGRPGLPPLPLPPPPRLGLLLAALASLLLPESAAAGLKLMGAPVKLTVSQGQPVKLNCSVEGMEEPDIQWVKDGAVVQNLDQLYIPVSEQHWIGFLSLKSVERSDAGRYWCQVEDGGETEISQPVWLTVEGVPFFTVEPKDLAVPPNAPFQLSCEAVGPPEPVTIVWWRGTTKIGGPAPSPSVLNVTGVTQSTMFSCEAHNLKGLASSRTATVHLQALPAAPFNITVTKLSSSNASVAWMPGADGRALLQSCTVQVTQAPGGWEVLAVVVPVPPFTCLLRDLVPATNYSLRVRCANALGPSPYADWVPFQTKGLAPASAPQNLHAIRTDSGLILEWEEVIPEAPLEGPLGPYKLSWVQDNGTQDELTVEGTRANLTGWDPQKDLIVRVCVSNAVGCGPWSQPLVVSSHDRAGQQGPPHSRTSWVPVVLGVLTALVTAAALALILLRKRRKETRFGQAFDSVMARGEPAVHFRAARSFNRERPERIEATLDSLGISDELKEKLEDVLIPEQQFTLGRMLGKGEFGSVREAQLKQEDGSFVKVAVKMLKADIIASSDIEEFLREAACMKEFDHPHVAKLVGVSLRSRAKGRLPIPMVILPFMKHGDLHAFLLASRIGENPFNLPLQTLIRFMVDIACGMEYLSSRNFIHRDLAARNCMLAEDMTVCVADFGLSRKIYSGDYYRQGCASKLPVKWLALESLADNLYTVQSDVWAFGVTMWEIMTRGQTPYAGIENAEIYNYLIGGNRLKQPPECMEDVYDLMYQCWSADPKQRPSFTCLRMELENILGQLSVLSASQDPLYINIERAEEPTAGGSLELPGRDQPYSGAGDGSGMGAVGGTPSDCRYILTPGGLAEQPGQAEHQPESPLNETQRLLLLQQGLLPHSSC

[7] = target: T2, Receptor-type tyrosine-protein kinase FLT3 (Homo sapiens, UniProt P36888);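 note: FLT3 was tested as one member of a kinome-wide kinase panel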
T2 sequence (P36888 whole entry): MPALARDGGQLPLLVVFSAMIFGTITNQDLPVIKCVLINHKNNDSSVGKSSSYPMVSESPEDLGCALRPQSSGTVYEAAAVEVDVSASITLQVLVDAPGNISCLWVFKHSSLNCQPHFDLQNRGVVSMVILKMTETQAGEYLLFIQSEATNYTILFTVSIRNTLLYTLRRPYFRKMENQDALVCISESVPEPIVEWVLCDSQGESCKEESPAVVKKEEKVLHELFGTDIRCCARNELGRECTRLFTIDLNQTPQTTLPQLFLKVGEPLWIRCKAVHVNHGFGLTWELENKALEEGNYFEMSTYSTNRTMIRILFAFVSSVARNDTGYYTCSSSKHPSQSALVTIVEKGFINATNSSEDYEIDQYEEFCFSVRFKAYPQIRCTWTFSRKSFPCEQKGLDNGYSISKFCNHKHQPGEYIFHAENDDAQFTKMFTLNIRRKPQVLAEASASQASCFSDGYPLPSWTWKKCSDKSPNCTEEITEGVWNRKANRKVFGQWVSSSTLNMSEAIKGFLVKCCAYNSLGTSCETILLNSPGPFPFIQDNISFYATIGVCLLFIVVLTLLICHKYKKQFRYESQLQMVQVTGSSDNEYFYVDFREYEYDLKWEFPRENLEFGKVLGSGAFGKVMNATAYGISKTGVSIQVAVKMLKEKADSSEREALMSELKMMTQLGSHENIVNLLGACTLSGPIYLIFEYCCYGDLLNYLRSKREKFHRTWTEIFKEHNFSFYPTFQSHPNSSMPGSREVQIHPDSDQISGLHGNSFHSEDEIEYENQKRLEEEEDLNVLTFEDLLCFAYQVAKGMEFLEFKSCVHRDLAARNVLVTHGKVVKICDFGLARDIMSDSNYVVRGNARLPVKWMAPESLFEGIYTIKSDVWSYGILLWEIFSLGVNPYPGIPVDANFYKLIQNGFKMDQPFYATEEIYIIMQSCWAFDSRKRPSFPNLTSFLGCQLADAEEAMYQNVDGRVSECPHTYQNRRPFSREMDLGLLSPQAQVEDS

Sequence of Cyclin-dependent kinase 9 (P50750 whole entry): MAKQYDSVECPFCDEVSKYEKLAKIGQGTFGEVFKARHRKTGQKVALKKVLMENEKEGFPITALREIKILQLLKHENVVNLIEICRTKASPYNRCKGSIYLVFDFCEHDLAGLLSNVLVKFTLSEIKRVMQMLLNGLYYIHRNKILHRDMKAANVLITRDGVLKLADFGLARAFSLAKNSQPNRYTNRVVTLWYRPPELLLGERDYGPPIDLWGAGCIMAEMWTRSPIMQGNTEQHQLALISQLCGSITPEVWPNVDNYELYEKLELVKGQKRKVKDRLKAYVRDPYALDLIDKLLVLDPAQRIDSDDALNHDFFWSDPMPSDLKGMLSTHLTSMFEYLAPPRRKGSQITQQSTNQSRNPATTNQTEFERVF
Sequence of Dual specificity protein kinase CLK2 (P49760 whole entry): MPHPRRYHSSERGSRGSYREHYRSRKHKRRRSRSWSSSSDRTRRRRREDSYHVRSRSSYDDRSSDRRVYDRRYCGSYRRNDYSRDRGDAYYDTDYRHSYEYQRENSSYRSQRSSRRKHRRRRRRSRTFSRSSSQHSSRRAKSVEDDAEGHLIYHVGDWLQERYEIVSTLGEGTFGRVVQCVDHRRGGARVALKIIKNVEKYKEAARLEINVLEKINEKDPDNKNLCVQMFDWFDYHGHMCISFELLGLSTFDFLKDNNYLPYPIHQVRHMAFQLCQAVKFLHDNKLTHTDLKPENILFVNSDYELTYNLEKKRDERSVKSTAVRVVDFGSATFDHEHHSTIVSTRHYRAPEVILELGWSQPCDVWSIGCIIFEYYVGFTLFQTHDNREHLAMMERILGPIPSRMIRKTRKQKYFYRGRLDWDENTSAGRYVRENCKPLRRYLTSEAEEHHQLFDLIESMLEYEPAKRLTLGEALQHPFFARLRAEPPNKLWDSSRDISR
Sequence of Aurora kinase B (Q96GD4 whole entry): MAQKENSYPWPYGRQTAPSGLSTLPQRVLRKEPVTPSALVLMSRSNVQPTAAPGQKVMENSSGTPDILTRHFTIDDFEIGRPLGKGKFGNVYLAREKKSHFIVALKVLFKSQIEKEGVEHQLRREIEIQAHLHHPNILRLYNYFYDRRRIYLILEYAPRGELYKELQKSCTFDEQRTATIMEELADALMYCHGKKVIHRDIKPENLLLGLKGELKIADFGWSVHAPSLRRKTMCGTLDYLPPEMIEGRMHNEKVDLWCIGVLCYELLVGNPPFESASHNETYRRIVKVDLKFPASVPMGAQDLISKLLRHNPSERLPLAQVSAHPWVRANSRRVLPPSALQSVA
Sequence of Macrophage colony-stimulating factor 1 receptor (P07333 whole entry): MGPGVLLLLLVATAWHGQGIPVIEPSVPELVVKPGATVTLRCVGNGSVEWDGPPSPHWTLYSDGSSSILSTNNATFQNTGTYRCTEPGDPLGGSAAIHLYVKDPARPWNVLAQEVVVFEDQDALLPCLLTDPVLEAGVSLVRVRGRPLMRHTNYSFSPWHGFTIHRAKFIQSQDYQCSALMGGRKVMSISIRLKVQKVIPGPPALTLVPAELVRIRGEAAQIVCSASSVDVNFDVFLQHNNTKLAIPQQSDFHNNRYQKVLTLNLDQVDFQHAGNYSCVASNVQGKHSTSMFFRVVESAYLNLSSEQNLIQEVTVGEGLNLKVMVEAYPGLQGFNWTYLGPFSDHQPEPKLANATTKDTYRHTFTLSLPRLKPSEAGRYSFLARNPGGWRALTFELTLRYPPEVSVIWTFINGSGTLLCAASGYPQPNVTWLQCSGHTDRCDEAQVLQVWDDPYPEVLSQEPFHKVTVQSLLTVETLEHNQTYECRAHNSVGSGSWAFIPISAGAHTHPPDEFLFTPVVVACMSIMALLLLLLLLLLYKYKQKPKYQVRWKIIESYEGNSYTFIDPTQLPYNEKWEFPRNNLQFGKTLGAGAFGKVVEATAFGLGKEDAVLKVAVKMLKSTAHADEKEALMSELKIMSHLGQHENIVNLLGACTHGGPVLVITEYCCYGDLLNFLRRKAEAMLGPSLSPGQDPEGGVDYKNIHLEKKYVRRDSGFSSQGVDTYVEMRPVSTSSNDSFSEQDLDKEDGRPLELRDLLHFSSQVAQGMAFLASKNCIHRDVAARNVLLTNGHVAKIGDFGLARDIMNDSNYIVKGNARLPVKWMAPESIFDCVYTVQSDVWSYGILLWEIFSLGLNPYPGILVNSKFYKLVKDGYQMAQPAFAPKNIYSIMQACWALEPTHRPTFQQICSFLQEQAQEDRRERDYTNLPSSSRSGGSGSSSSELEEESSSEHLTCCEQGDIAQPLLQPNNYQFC
Sequence of Platelet-derived growth factor receptor alpha (P16234 whole entry): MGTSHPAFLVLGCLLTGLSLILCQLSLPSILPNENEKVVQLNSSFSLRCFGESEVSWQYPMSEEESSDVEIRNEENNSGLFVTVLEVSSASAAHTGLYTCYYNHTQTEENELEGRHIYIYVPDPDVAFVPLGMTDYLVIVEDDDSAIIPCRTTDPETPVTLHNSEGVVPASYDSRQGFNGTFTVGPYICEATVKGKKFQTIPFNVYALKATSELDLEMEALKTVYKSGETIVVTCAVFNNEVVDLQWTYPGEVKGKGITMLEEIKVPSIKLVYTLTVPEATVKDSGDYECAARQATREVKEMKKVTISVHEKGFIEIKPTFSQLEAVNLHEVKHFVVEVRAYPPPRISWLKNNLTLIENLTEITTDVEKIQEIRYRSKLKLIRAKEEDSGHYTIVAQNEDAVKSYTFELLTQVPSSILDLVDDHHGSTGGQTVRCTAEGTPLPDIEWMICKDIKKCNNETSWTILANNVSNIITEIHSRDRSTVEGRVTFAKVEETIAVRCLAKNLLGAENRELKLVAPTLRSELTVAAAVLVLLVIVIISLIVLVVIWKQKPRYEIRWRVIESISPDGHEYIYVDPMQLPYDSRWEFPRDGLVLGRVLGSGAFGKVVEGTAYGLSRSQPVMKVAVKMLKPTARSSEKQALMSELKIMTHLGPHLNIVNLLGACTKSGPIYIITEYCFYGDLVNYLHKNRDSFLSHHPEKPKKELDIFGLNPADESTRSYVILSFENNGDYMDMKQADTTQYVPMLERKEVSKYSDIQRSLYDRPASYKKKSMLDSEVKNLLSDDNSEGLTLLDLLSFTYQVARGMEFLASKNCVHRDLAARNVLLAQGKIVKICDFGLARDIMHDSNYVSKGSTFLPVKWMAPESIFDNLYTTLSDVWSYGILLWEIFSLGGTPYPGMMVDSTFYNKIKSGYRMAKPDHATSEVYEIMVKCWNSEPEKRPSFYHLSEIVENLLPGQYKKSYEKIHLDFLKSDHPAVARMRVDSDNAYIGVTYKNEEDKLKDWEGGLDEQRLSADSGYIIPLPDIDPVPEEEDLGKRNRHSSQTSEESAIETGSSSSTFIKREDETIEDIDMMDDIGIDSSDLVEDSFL

Row | SMILES | Ki [1] | Ki [2] | Ki [3] | Ki [4] | Ki (Aurora kinase B) | Ki [5] | Ki [6] | Ki [7]
1 | O=c1[nH]c2cc(Br)cnc2[nH]1 | 5.01 µM (active) | 3.98 µM (active) | > 100 µM (inactive) | 12.6 µM (active) | 5.01 µM (active) | 25.1 µM (active) | 31.6 µM (active) | 
2 | O=C(Nc1cccc(C(F)(F)F)n1)Nc1ccnc2cc(OC(F)F)ccc12 | > 2.51 µM (inactive) | > 2 µM (inactive) | > 2.51 µM (inactive) | > 1.58 µM (inactive) | > 3.98 µM (inactive) | > 3.98 µM (inactive) | > 3.16 µM (inactive) | > 3.16 µM (inactive)
3 | O=C(Nc1cccc(C(F)(F)F)n1)Nc1ccnc2cc(Cl)ccc12 | > 2.51 µM (inactive) | > 2 µM (inactive) | > 2.51 µM (inactive) | > 1.58 µM (inactive) | > 3.98 µM (inactive) | > 3.98 µM (inactive) | > 3.16 µM (inactive) | > 3.16 µM (inactive)
4 | CCC1CC(NS(=O)(=O)C2CC2)CC1c1ncc2cnc3[nH]ccc3n12 (stereo not given) | > 2.51 µM (inactive) | > 2 µM (inactive) | 1.58 µM (active) | > 1.58 µM (inactive) |  | > 3.98 µM (inactive) | > 2 µM (inactive) | > 3.16 µM (inactive)
